# “And” between values parts separate entries of the source, which are not always exact repeats. Identical values can stand only once. Positions of bridges follow the written chain, without caps; N, C: chain ends. Residues, ends and D or L forms follow the SMILES beside them. No end group written: not given here.
# Assays:
# [1] = target: T1, EphA4 Fc Chimera protein / ephrinA5 (Mus musculus, UniProt Q03137); assay: ELISA-based binding assay: inhibition of ephrinA5 AP binding to immobilized EphA4 Fc; type: biochemical
# T1 construct: using the immobilized EphA4 extracellular domain fused to human Fc; purchased R&D Systems, Minneapolis, MN
# T1 sequence (Q03137 20-547 limits assumed, change not shown): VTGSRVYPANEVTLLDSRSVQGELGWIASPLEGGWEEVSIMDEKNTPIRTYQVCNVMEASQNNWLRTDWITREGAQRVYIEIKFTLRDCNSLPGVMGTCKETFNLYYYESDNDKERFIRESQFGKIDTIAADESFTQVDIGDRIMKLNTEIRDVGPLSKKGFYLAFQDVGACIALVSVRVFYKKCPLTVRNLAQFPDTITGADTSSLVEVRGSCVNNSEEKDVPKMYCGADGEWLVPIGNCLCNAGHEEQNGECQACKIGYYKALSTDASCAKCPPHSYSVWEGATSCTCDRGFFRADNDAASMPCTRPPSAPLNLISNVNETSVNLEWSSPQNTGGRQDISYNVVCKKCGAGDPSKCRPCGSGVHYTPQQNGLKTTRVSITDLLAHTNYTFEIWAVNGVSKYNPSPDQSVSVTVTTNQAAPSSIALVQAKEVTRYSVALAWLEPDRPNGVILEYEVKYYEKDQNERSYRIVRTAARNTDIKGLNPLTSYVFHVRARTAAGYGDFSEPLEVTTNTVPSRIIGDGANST
# Procedure: For Eph receptor binding studies, 50 μl of ephrin A5 (5 μg/ml, kindly provided by Dr. Elena B. Pasquale, Sanford-Burnham Medical Research Institute) was coated onto each well on a 96-well ELISA plate (Corning, #3690) overnight at 4°C. The wells were blocked with 100 μl blocking buffer (Pierce, #37543) for 1 h and then rinsed with PBS. A 1 μg of recombinant mouse EphA4 Fc Chimera protein (R&D Systems, Minneapolis, MN) in EIA buffer (1% BSA, 0.05% Tween 20 in TBS) was then incubated in each well for 1.5 h at room temperature. The EphA4 Fc-coated wells were rinsed with PBS buffer and incubated for 1.5 h with different peptide concentrations and same amount of alkaline phosphatase (AP)-tagged ephrin A5 in a total volume of 50 μl. After the unbound peptide and ephrin had been washed away, bound ephrin-A5 AP was quantified using p-nitrophenylphosphate as a substrate by a Synergy2 reader (BioTek, Winooski, VT) with wavelength of 405 nm. Data were fitted using nonlinear regression. IC50 values were calculated using Prism (GraphPad Software Inc.).
# HUVEC = HUVEC viability assay (CellTiter-Blue); type: cell-based, human; settings: for cytotoxic effects on HUVECs: 48 h, 37°C, CellTiter-Blue, fluorescence 540Ex/600Em, at least three independent experiments
# Procedure: The cytotoxic effects of the TYY cyclic peptide were measured at different concentrations by plating 1×10^4 HUVEC cells (ATCC) per well in 96-well plates and determining cell survival. Cells were treated with various concentrations of TYY (10 μM and 20 μM) and incubated in an incubator with a 5% CO2 and 95% humidity atmosphere at 37°C for 24 h and 48 h. After incubation, cell viability was measured using a CellTiter-Blue assay kit (Promega) according to the manufacturer’s instructions. Briefly, 20 μl of CellTiter-Blue reagent was added to 100 μl of culture media and cells were incubated for 2-4 hours at 37°C. Afterward, fluorescence at 540Ex/600Em was measured using a fluorescence plate reader (BioTek, Synergy 2). Each experimental data point was generated from at least three independent experiments.
# Figure 3 Effects of the TYY cyclic peptide on viability of HUVEC cells. The HUVECs were treated with the indicated concentrations of the TYY peptide. A 0.1% DMSO control was used because the highest concentration of the DMSO vehicle in the TYY solutions was 0.1%. The cell viability was determined by CellTiter-Blue assays 24 h and 48 h after addition of TYY. Each experimental data point was generated from at least three independent experiments.
# EphA4 Fc = assay: Phage binding assay (phage-displayed peptide on EphA4 Fc); design: species or system mouse; settings: 4 μg/ml EphA4 Fc coating, room temperature, 2 h, HRP-anti-M13, ABTS, 405 nm, versus BSA control
# Procedure: A pre-made library consisting of a disulfide-constrained nonapeptide (Ph.D.-C7C) library (New England Biolabs, Beverly, MA) was used for panning on EphA4. Recombinant mouse EphA4 Fc Chimera protein (R&D Systems, Minneapolis, MN) was incubated overnight at 4°C in 96-well ELISA plate wells at concentrations of 10 μg/ml in coating buffer (0.1 M NaHCO3). Wells were blocked for 1 h with blocking buffer (0.1 M NaHCO3, 5 mg/ml BSA, 0.02%NaN3), and rinsed with TBST (0.1% Tween20 in TBS). In round 1 of panning, 5×10^10 plaque-forming units (PFUs) of the phage library in 100 μl TBST were incubated for 1h at room temperature in EphA4 receptor-coated wells. After washing, the remaining bound phage were eluted with 100 μl of 0.2 M glycine-HCl (pH 2.2), and then neutralized by 15 μl 1M Tris-HCl (pH9.1). The entire eluate was used to infect early-log phase ER2738 host bacteria and amplified (4.5 h, 37 °C). The phage were concentrated and stored according to the manufacturer’s recommendations. In rounds 2, 3, and 4, we added 4.9×10^10, 1.81×10^11, 1.95×10^11 PFUs of the amplified phage pool from the previous round, respectively, to an EphA4 Fc-coated well and a BSA coated well. The phages were panned as described for round 1, except eluted phages were tittered prior to amplification to assess enrichment.
# Phages binding to EphA4 receptor-coated plates were quantified using an anti-phage antibody conjugated to horseradish peroxidase (M13 phage detection kit, Amersham Pharmacia Biotech, Piscataway, NJ) with 2,2-azino-bis(3-ethylbenzthiazoline-6-sulfonic acid) as substrate. A 50 μl of 4 μg/ml EphA4 Fc or 5 mg/ml BSA (as a negative control) in coating buffer (0.1 M NaHCO3) was incubated overnight at 4°C in 96-well ELISA plate wells. Wells were blocked for 30 minutes with blocking buffer, and rinsed with TBST. A 50 μl of amplified phage was added to each well and incubated at room temperature for 2 h. […] Absorbance of each well was read at 405 nm with a Synergy 2 reader (BioTek, Synergy 2). […]
# EphA4 = settings: ref [25]; cited from earlier work
# Description: A promising strategy for anti-angiogenic cancer therapies is to antagonize Eph-ephrin interactions by interfering with the Eph receptor/ephrin system. Several different synthetic peptides and small molecules have been studied for this purpose; the advantage of these artificial ligands is that they can show a much higher selectivity compared to the physiological ephrin ligands.
compound,measurement,setting,value
CC(C)C[C@@H]1NC(=O)[C@@H]2CCCN2C(=O)[C@H](Cc2c[nH]c3ccccc23)NC(=O)[C@H](Cc2ccc(O)cc2)NC(=O)[C@H](Cc2ccc(O)cc2)NC(=O)[C@H]([C@@H](C)O)NC(=O)[C@@H](N)CSSC[C@@H](C(N)=O)NC(=O)[C@@H]2CCCN2C1=O [TYY] (H-CTYYWPLPC-NH2; disulfide 1-9),inhibition of EphA4-ephrinA5 binding,"[1]; 100 nM peptide, ELISA, 1.5 h, three independent measurements",24.8%
same,inhibition of EphA4-ephrinA5 binding,"[1]; 100 μM peptide, ELISA, 1.5 h, three independent measurements",94.06% and 94%
same,IC50,"[1]; ELISA, ephrin A5-coated plate, EphA4 Fc, AP-tagged ephrin A5, 1.5 h incubation, p-nitrophenylphosphate, 405 nm, nonlinear regression (Prism), three independent measurements",11.7 µM
same,cytotoxic effects on HUVECs,HUVEC; 10 μM,no cytotoxic effects on HUVECs
same,cytotoxic effects on HUVECs,HUVEC; 20 μM,no cytotoxic effects on HUVECs
same,cytotoxic effects in HUVECs,HUVEC; concentrations up to 20 μM,no cytotoxic effects in the HUVECs
"CLMTSQFRC (disulfide 1-9) [cyclic nonapeptide c[…] from M13 phage display library, tested on phage]",binding of phage clones to EphA4 Fc,EphA4 Fc,significant binding
CSWYWPLPC (disulfide 1-9) [disulfide-constrained cyclic nonapeptide c[…] from M13 phage display library],inhibition of ephrin A5 binding to EphA4,"[1]; 50 μM peptide, ELISA, 1.5 h",40%
same,inhibition of EphA4 binding with AP-tagged ephrinA5 (in words),[1]; dose dependence,dose-dependent inhibition
same,binding of phage clones to EphA4 Fc,EphA4 Fc,significant binding
"CWPIKVGWC (disulfide 1-9) [cyclic nonapeptide c[…] from M13 phage display library, tested on phage]",binding of phage clones to EphA4 Fc,EphA4 Fc,significant binding
"KYLPYWPVLSSL [linear 12-residue KYL peptide (…), positive control, reference compound]",inhibition of EphA4-ephrinA5 binding,"[1]; 25 μM, positive control, ELISA, 1.5 h, three independent measurements",92%
same,artificial ligand of EphA4,EphA4,act as artificial ligands
